This series can be described thus: Fasting single dose PK study in dogs: plasma ondansetron after intravenous bolus of marketed ondansetron injection (reference). The series is classed as in vivo. The following applies: fasted male Beagle dogs; for C0: 2 mg/mL solution; for Vd: read-out: Vss. The procedure:
Male Beagle dogs were fasted are divided into six groups as G1, G2, G3, G4, G5 and G6 each consisting of four dogs.
Blood samples were collected from each IM route dogs at 0 (pre-dose), 0.5, 1, 2, 4, 8, 16, 24, 36, 48, 72, 96, 120, 144, 168 and 240 h post-dose; for IV route dogs, blood samples were collected at 0 (pre-dose), 0.167, 0.33, 0.5, 0.75, 1, 2, 4, 8, 12 and 24 h post-dose and analysed for ondansetron in plasma and calculated using the noncompartmental analysis tool of the validated Phoenix WinNonlin software (Version 8.0). The summary of plasma pharmacokinetics parameters of ondansetron for G1 and G2 animals is summarized in Table—2 (FIGS. 1, 2) and G3, G4, G5 and G6 (FIGS. 3, 4, 5 and 6) animals is summarized in Table— 3.

What is called AUC(0-inf) is total exposure, with the tail of the curve extrapolated. As usually defined, the AUC(0-t) is the area under the concentration-time curve up to a stated or last time point. A low value points to low exposure. By MRT last is commonly meant the average time that molecules of a dose stay in the body. In general, clearance refers to a measure of how efficiently the substance is removed, as volume per time. For orientation: half-life means the time in which the quantity being followed falls by half.

Where two headings read alike, the source gives them in different places.

Turning to `Cc1nccn1CC1CCc2c(c3ccccc3n2C)C1=O` (centres unmarked) [Ondansetron], for the setting “G1, IV bolus 4 mg/dog”, the C0 turned out to be 110 ng/mL, the total exposure AUC(0-inf) is 107 ng·h/mL, the exposure AUC(0-t) was found to be 106 ng·h/mL and the MRT last stood at 1.12 h. Also, for the setting “G1, IV bolus 4 mg/dog”, the clearance turned out to be 644 mL/min, the half-life was 0.878 h and the Vd turned out to be 40.3 L. For the setting “G2, IV bolus 24 mg/dog”, the C0 was found to be 828 ng/mL, the area under the curve AUC(0-inf) was 716 ng·h/mL, the area under the curve AUC(0-t) came out at 715 ng·h/mL and the mean residence time (MRT last) came out at 1.17 h. Besides, for the setting “G2, IV bolus 24 mg/dog”, the clearance was 563 mL/min, the half-life was 1.28 h and the Vd was 36.3 L.

(Values after US12508247B2, “Controlled release injectable ondansetron formulations” (SHILPA MEDICARE LIMITED, priority 2019, dated 2025).)
